# In US6011135A, “Triazine thiol derivative having a perfluoro group, method for producing same and use of same” (Iwate University, priority 1997, dated 2000):
# Legend:
# Assay type in all cases: physicochemical
# [1] = Oxidation potential, yardstick for easiness of tribological and electrolytic polymerization
# Text: (§1) In Table 5 below, there is shown the effectiveness of 6-perfluoro alkylamino-1,3,5-triazine-2,4-dithiol of examples of the present invention by comparing the dissociation constants, oxidation potential and critical micelle concentration with those of the comparative example.
# (§2) With respect to the dissociation constants (pKa1, pKa2), which may function as a yardstick for reactivity, all the examples of the present invention have lower dissociation constants than the comparative example. Accordingly, it is understood that the triazine thiol derivative having a perfluoro group of the present invention has an excellent reactivity. With regard to the oxidation potential which functions as a yardstick for easiness of tribological polymerization and electrolytic polymerization, each example has a lower oxidation potential than the comparative example. This means that an oxidative polymerization of the triazine thiol derivative having a perfluoro group according to the present invention is easier than that of the comparative example. Further, the critical micelle concentration of every example is lower than that of the comparative example. This means that micelle formation is easier in the examples and thus, the triazine thiol derivative having a perfluoro group according to the present invention has an excellent surface activity.
# [2] = Dissociation constants (pKa1, pKa2), yardstick for reactivity; conditions: dissociation constant
# Text: as §1, §2
# [3] = Solubility of 6-perfluoro alkylamino-1,3,5-triazine-2,4-dithiol to various solvents; parameters: key to Solubility, Toluene: X: did not solved; Δ: slightly solved (1 wt % or less); .largecircle.: sufficiently solved (1-10 wt %); .circleincircle.: excellently solved (10 wt % or more)
# [4] = Critical micelle concentration (surface activity)
# Text: as §1, §2
structure (smiles),measurement,setting,value
"FC(F)(F)C(F)(F)C(F)(F)C(F)(F)C(F)(F)C(F)(F)C(F)(F)c1ccc(Nc2nc(S)nc(S)n2)cc1 [Comparative example, reference compound]",Oxidation potential,[1],0.90 V vs. Ag^+ /Ag
same,pKa1,[2],8.3
same,pKa2,[2],10.7
same,"Solubility, MEK",[3],Δ (slightly solved (1 wt % or less))
same,"Solubility, Acetic ether",[3],Δ (slightly solved (1 wt % or less))
same,"Solubility, Ethanol",[3],Δ (slightly solved (1 wt % or less))
same,"Solubility, Toluene",[3],X
same,"Solubility, Water",[3],Δ (slightly solved (1 wt % or less))
same,Critical micelle concentration,[4],0.022 mol/L
FC(F)(F)C(F)(F)C(F)(F)C(F)(F)C(F)(F)C(F)(F)C(F)(F)CNc1nc(S)nc(S)n1 [Example 11],Oxidation potential,[1],0.62 V vs. Ag^+ /Ag
same,pKa1,[2],8.1
same,pKa2,[2],10.3
same,"Solubility, MEK",[3],.largecircle. (sufficiently solved (1-10 wt %))
same,"Solubility, Acetic ether",[3],Δ (slightly solved (1 wt % or less))
same,"Solubility, Ethanol",[3],.largecircle. (sufficiently solved (1-10 wt %))
same,"Solubility, Toluene",[3],Δ (slightly solved (1 wt % or less))
same,"Solubility, Water",[3],.largecircle. (sufficiently solved (1-10 wt %))
same,Critical micelle concentration,[4],0.0021 mol/L
CCCCN(CC(F)(F)C(F)(F)C(F)(F)C(F)(F)C(F)(F)C(F)(F)C(F)(F)F)c1nc(S)nc(S)n1 [Example 12],Oxidation potential,[1],0.46 V vs. Ag^+ /Ag
same,pKa1,[2],7.4
same,pKa2,[2],10.4
same,"Solubility, MEK",[3],.circleincircle. (excellently solved (10 wt % or more))
same,"Solubility, Acetic ether",[3],.largecircle. (sufficiently solved (1-10 wt %))
same,"Solubility, Ethanol",[3],.largecircle. (sufficiently solved (1-10 wt %))
same,"Solubility, Toluene",[3],.largecircle. (sufficiently solved (1-10 wt %))
same,"Solubility, Water",[3],.largecircle. (sufficiently solved (1-10 wt %))
same,Critical micelle concentration,[4],2.1e-05 mol/L
FC(F)(F)C(F)(F)C(F)(F)C(F)(F)C(F)(F)C(F)(F)C(F)(F)CN(c1nc(S)nc(S)n1)C1CCCCC1 [Example 13],Oxidation potential,[1],0.78 V vs. Ag^+ /Ag
same,pKa1,[2],6.2
same,pKa2,[2],10.6
same,"Solubility, MEK",[3],.circleincircle. (excellently solved (10 wt % or more))
same,"Solubility, Acetic ether",[3],.largecircle. (sufficiently solved (1-10 wt %))
same,"Solubility, Ethanol",[3],.largecircle. (sufficiently solved (1-10 wt %))
same,"Solubility, Toluene",[3],.largecircle. (sufficiently solved (1-10 wt %))
same,"Solubility, Water",[3],.largecircle. (sufficiently solved (1-10 wt %))
same,Critical micelle concentration,[4],5.6e-05 mol/L
CCCCN(CC(F)(F)C(F)(F)C(F)(F)C(F)(F)C(F)(F)C(F)(F)C(F)(F)C(F)(F)C(F)(F)C(F)(F)F)c1nc(S)nc(S)n1 [Example 14],Oxidation potential,[1],0.56 V vs. Ag^+ /Ag
same,pKa1,[2],7.5
same,pKa2,[2],9.8
same,"Solubility, MEK",[3],.circleincircle. (excellently solved (10 wt % or more))
same,"Solubility, Acetic ether",[3],.largecircle. (sufficiently solved (1-10 wt %))
same,"Solubility, Ethanol",[3],.largecircle. (sufficiently solved (1-10 wt %))
same,"Solubility, Toluene",[3],.largecircle. (sufficiently solved (1-10 wt %))
same,"Solubility, Water",[3],.largecircle. (sufficiently solved (1-10 wt %))
same,Critical micelle concentration,[4],1.1e-05 mol/L
